Measurements as given in patent publication US20070014734A1, “Glucuronidated nebivolol metabolites” (priority 2005, published 2007).

Legend:
human endothelial cells = experiment: Acute ONOO− (peroxynitrite) release from human endothelial cells of white and black donors; type: cell-based; conditions: acute treatment; for Acute ONOO− Release, Black Donors ONOO−: endothelial cells from black donors; for Acute ONOO− Release, White Donors ONOO−: endothelial cells from white donors; for ONOO− (peroxynitrite) release (in words): human endothelial cells
Description: The donors were between 20-25 years of age, with a mean body mass index (in kg/m^2), of 22.6±1.4 for white donors and 23.1±1.7 for black donors. The identification of race was defined by self report. For FIGS. 1-3, the HUvEC samples were obtained from American Type Culture Collection (Manassas, Va.). […] However, the amount of OONO^− produced for any of the metabolites was less than that observed for nebivolol. The ratio of NO to OONO^− produced by nebivolol and its glucuronide metabolites was similar following acute administration (Table 4).

[1] = system: Human Umbilical Vein Endothelial Cells (HUVEC); experiment: Acute NO release from HUVEC of white and black American donors, electrochemical nanosensors; type: cell-based; conditions: for Acute NO Release, Black Donors NO: HUVEC from black American donors; for Acute NO Release, Black Donors NO / Acute NO Release, White Donors NO: acute treatment 1.0 μM, mean±S.D. (n=5); for Acute NO Release, White Donors NO: HUVEC from white donors; for Acute [NO]/[ONOO−] Release Ratio, Black Donors / Acute [NO]/[ONOO−] Release Ratio, White Donors: ratio of NO (Table 1) to ONOO− (Table 3); for NO release after acute treatment (in words): endothelial cells from both white and black American donors, 1.0 μM
Experimental: The acute effects of nebivolol racemate, its separate enantiomers, and four stereoselective glucuronide metabolites on endothelial-dependent NO release were tested in Human Umbilical Vein Endothelial Cells (HUVEC). The tissue is isolated from normotensive white and black American donors with matched risk factor profiles. Production of NO is recorded using electrochemical nanosensors following acute treatment with the drugs at 1.0 μM (n=5).
The donors were between 20-25 years of age, with a mean body mass index (in kg/m^2), of 22.6±1.4 for white donors and 23.1±1.7 for black donors. The identification of race was defined by self report. For FIGS. 1-3, the HUvEC samples were obtained from American Type Culture Collection (Manassas, Va.).
The baseline is stabilized after about 20 seconds.
Nanosensors are prepared from carbon fibers.

| Structure (SMILES) | Acute ONOO− Release, Black Donors ONOO− (human endothelial cells) [nM] | Acute ONOO− Release, White Donors ONOO− (human endothelial cells) [nM] | Acute NO Release, Black Donors NO [1] [nM] | Acute NO Release, White Donors NO [1] [nM] | Acute [NO]/[ONOO−] Release Ratio, Black Donors [1] | NO release after acute treatment (in words) [1] | Acute [NO]/[ONOO−] Release Ratio, White Donors [1] | ONOO− (peroxynitrite) release (in words) (human endothelial cells) |
| --- | --- | --- | --- | --- | --- | --- | --- | --- |
| OC(CNCC(O)C1CCc2cc(F)ccc2O1)C1CCc2cc(F)ccc2O1 (racemic) [nebivolol, α,α′-[iminobismethylene]bis[6-fluoro-3,4-dihydro-2H-1-benzopyran-2-methanol]] | 242 ± 17 | 193 ± 16 | 148 ± 10 | 218 ± 11 | 0.612 | marked improvement | 1.130 | – |
| O=C(O)C1OC(OC(CNCC(O)C2CCc3cc(F)ccc3O2)C2CCc3cc(F)ccc3O2)C(O)C(O)C1O (single isomer, unassigned) [G-UDb, l-Nebivolol-11-O-β-D-glucuronide] | 225 ± 16 | 180 ± 13 | 139 ± 12 | 206 ± 12 | 0.618 | – | 1.144 | greatest activity |
| O=C(O)C1OC(OC(CNCC(O)C2CCc3cc(F)ccc3O2)C2CCc3cc(F)ccc3O2)C(O)C(O)C1O (single isomer, unassigned) [G-UDd, l-Nebivolol-11′-O-β-D-glucuronide] | 193 ± 17 | 135 ± 13 | 117 ± 8 | 161 ± 11 | 0.606 | – | 1.193 | – |
| O=C(O)C1OC(OC(CNCC(O)C2CCc3cc(F)ccc3O2)C2CCc3cc(F)ccc3O2)C(O)C(O)C1O [G-UDa, d-Nebivolol-11-O-β-D-glucuronide] | 238 ± 22 | 180 ± 16 | 144 ± 10 | 202 ± 12 | 0.605 | – | 1.122 | greatest activity |
| O=C(O)C1OC(OC(CNCC(O)C2CCc3cc(F)ccc3O2)C2CCc3cc(F)ccc3O2)C(O)C(O)C1O [G-UDc, d-Nebivolol-11′-O-β-D-glucuronide] | 204 ± 13 | 166 ± 13 | 129 ± 10 | 188 ± 12 | 0.632 | – | 1.133 | – |
| O[C@H](CNC[C@@H](O)[C@H]1CCc2cc(F)ccc2O1)[C@@H]1CCc2cc(F)ccc2O1 [d-nebivolol, reference compound] | 116 ± 6 | 87 ± 6 | 87 ± 6 | 127 ± 17 | 0.750 | marked improvement | 1.460 | – |
| O[C@@H](CNC[C@H](O)[C@H]1CCc2cc(F)ccc2O1)[C@@H]1CCc2cc(F)ccc2O1 [l-nebivolol, reference compound] | 267 ± 13 | 223 ± 17 | 192 ± 9 | 268 ± 12 | 0.719 | marked improvement | 1.202 | – |
